Experimental data reported in ChEMBL document CHEMBL1131014, “Three-dimensional quantitative similarity-activity relationships (3D QSiAR) from SEAL similarity matrices” (J Med Chem, 1998).

What follows are molecules tested against T1, Corticosteroid-binding globulin (Sus scrofa) (UniProt Q9GK37).
T1 sequence (whole entry): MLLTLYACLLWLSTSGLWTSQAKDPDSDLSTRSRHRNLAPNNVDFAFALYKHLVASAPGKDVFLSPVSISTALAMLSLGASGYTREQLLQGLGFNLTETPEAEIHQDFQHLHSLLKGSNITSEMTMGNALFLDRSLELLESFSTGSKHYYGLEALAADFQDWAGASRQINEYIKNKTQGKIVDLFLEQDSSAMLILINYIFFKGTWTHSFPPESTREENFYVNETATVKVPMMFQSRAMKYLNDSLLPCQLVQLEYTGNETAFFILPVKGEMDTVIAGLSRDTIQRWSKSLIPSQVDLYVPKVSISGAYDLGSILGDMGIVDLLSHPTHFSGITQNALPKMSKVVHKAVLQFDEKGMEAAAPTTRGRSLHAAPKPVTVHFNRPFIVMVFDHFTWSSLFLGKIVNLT
Description: Compound was tested for Corticosteroid binding globulin affinity
`C[C@]12CC[C@@H]3c4ccc(O)cc4CC[C@H]3[C@@H]1CC[C@@H]2O` was tested, and the Log K was 5.

Each molecule was assayed against T2, Corticosteroid-binding globulin (Homo sapiens) (UniProt P08185).
T2 sequence (whole entry): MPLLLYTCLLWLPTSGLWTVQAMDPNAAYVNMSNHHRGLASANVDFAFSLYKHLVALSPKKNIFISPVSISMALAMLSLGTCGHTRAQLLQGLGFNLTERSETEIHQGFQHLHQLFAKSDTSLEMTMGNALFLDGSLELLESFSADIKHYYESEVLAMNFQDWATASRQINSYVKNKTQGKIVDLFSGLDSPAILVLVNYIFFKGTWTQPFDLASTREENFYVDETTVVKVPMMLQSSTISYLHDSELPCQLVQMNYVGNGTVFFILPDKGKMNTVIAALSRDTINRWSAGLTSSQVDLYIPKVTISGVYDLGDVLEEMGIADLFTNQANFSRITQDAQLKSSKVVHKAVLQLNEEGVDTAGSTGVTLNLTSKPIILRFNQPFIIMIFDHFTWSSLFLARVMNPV
Description: Binding affinity to corticosteroid binding globulin
`CC(=O)[C@H]1CC[C@H]2[C@@H]3CCC4=CC(=O)CCC4[C@H]3CC[C@]12C` (stereo not given in full) showed a Log K of 6.82. `CC(=O)[C@H]1CC[C@H]2[C@@H]3CCC4=CC(=O)CC[C@]4(C)[C@H]3C(=O)C[C@]12C` gave a Log K of 6.78. `CC(=O)[C@H]1[C@H](C)C[C@H]2[C@@H]3CCC4=CC(=O)CC[C@]4(C)[C@H]3CC[C@@]21C` showed a Log K of 7.12. `CC(=O)[C@@]1(O)CC[C@H]2[C@@H]3CCC4=CC(=O)CC[C@]4(C)[C@H]3CC[C@@]21C` gave a Log K of 7.74. In the case of `CC(=O)OCC(=O)[C@@]1(O)CC[C@H]2C3CCC4=CC(=O)CC[C@]4(C)[C@H]3[C@@H](O)C[C@@]21C` (single isomer, unassigned), the Log K is reported as 7.55. `C[C@]12C[C@H](O)[C@H]3[C@@H](CCC4=CC(=O)CC[C@@]43C)[C@@H]1CC[C@@H]2C(=O)CO` showed a Log K of 7.88. Work on `C[C@]12CC[C@H](O)C[C@@H]1CC[C@@H]1[C@@H]2CC[C@]2(C)[C@@H](O)CC[C@@H]12` yielded a Log K of 5. With `C[C@]12C=CC(=O)C=C1CCC1[C@@H]2[C@@H](O)C[C@@]2(C)[C@H]1CC[C@]2(O)C(=O)CO` (single isomer, unassigned) the Log K was 7.51. Molecule `C[C@]12CCC(=O)C=C1CC[C@@H]1[C@@H]2[C@@H](O)C[C@]2(C=O)[C@@H](C(=O)CO)CC[C@@H]12` has a Log K of 6.28. `CC(=O)[C@@]1(O)CC[C@H]2[C@@H]3CC[C@@H]4C[C@H](O)CC[C@]4(C)[C@H]3CC[C@@]21C` was tested, and the Log K was 5. In the case of `CC(=O)[C@H]1CC[C@H]2[C@@H]3CCC4=CC(=O)CC[C@]4(C)[C@H]3CC[C@]12C`, the Log K is reported as 7.38. `C[C@]12CCC(=O)C=C1CC[C@@H]1[C@@H]2CC[C@@]2(C)[C@H]1CC[C@]2(O)C(=O)CO` gave a Log K of 7.88. For `C[C@]12CCC(=O)C=C1CCC1[C@@H]2[C@@H](O)C[C@@]2(C)[C@H]1CC[C@]2(O)C(=O)CO` (single isomer, unassigned), the Log K was 7.88. `C[C@]12CC[C@@H]3c4ccc(O)cc4CC[C@H]3[C@@H]1C[C@@H](O)[C@@H]2O` showed a Log K of 5. `CC(=O)[C@H]1CC[C@H]2[C@@H]3CC=C4C[C@@H](O)CC[C@]4(C)[C@H]3CC[C@]12C` was tested, and the Log K was 5.25. Molecule `CC(=O)[C@@]1(O)[C@H](O)C[C@H]2[C@@H]3CCC4=CC(=O)CC[C@]4(C)[C@H]3CC[C@@]21C` has a Log K of 6.25. Molecule `C[C@]12CCC(=O)C=C1CCC1[C@@H]2C(=O)C[C@@]2(C)[C@H]1CC[C@]2(O)C(=O)CO` (single isomer, unassigned) has a Log K of 6.89. In the case of `C[C@]12CC[C@H]3[C@@H](CCC4=CC(=O)CC[C@@]43C)[C@@H]1CC[C@@H]2C(=O)CO`, the Log K is reported as 7.65. In the case of `C[C@]12CC[C@H]3[C@@H](CCC4=CC(=O)CC[C@@H]43)[C@@H]1CC[C@@H]2O`, the Log K is reported as 6.14. `C[C@]12CCC(=O)C=C1CC[C@@H]1[C@@H]2CC[C@]2(C)C(=O)CC[C@@H]12` was tested, and the Log K was 5.76. `C[C@]12CC[C@H]3[C@@H](CCC4=CC(=O)CC[C@@]43C)[C@@H]1CC[C@@H]2O` gave a Log K of 6.72. With `C[C@@H]1C[C@@]2(C)C(=CC1=O)CC[C@H]1[C@@H]3CC[C@](O)(C(=O)CO)[C@@]3(C)C[C@H](O)[C@@]12F` the Log K was 5.8. For `C[C@]12CC[C@H](O)CC1=CC[C@@H]1[C@@H]2CC[C@]2(C)C(=O)CC[C@@H]12`, the Log K was 5. With `C[C@]12C[C@@H](O)[C@H]3[C@@H](CCC4=CC(=O)CC[C@@]43C)[C@@H]1CC[C@@H]2C(=O)CO` the Log K was 7.2.
